Assay [1] addresses T1, Prothrombin (Homo sapiens, UniProt P00734). The assay can be described thus: Concentration required for 50 percent inhibition of Prothrombin.
Assay [2] deals with T1, Prothrombin. The assay can be described thus: The compound was evaluated for binding affinity against Prothrombin.

The text below walks through data of ChEMBL document CHEMBL1133375, “Exploring the chiral space within the active site of alpha-thrombin with a constrained mimic of D-Phe-Pro-Arg--design, synthesis, inhibitory activity, and X-ray structure of an enzyme-inhibitor complex” (Bioorg Med Chem Lett, 2000).

SMILES strings stand for the structures.

Usually IC50 stands for the concentration needed to halve the response being measured. Lower therefore signals inhibition by little substance. In assay [1], `NCc1ccc(CNC(=O)[C@@H]2CC[C@H]3[C@@H](OCc4ccccc4)CCC(=O)N23)cc1` gave an IC50 of 12600 nM. In the case of `NCc1ccc(CNC(=O)[C@@H]2CC[C@H]3[C@@H](OCc4ccccc4)C[C@H](O)C(=O)N23)cc1`, the IC50 in assay [1] is 12600 nM. Take `O=C(NCC1CCNCC1)[C@@H]1CC[C@H]2[C@@H](OCc3ccccc3)CCC(=O)N12`: the IC50 in assay [1] was 12600 nM. This lies in the double-digit micromolar range. The same measure, in the same setting: with `O=C(NCC1CCNCC1)[C@@H]1CC[C@H]2[C@@H](OCc3ccccc3)C[C@H](O)C(=O)N12` the figure was 12600 nM. The term Ki denotes a measure of affinity in units of concentration, obtained from inhibition or displacement. A high value points to weaker binding. In assay [1], `N=C(N)c1ccc(CNC(=O)[C@@H]2CC[C@H]3CC[C@@](O)(Cc4ccccc4)C(=O)N32)cc1` showed an IC50 of 20 nM. In addition, affinity in assay [2] was put at a Ki of 9 nM. Take `C[C@]1(O)CC[C@@H]2CC[C@@H](C(=O)NCc3ccc(C(=N)N)cc3)N2C1=O`: in assay [1], the IC50 is 251 nM. For the same molecule, the affinity in assay [2], expressed as Ki, was 125 nM.

Regarding `CO[C@H]1C[C@@](O)(Cc2ccccc2)C(=O)N2[C@H](C(=O)NCc3ccc(C(=N)N)cc3)CC[C@@H]12`, the IC50 in assay [1] was 251 nM. Further, the Ki in assay [2] was 125 nM.
